Test [1] has as its system liver cancer cell line. Put plainly: Microscopic analysis of microvesicle and TNT formation (WGA-488/DAPI staining, confocal). In kind it is cell-based. On the procedure: The relationship between EGF and microvesicle and TNT formation was investigated by microscopic analysis. Specifically, after 14 hours of EGF treatment, cells were fixed with 4% paraformaldeyde and treated with WGA-488 and DAPI for 10 minutes to stain the cell membrane and nucleus. Fluorescence intensity was measured using an LSM700 Meta confocal microscope.

For test [2], the system named is CD133 expression in a liver cancer cell line. Put plainly: CD133 expression (Western blotting) and CD133 ORF promoter luciferase activity after EGF treatment. It is filed as cell-based. How it is done: After treatment with an inhibitor against an EGF downstream signaling molecule, CD133 expression was investigated. Specifically, for transfection and Western blotting, a specific gene (plasmid vector or siRNA) was expressed in cells using a transfection reagent. For general plasmid vector transfection, 24 hours after transfection, cells were harvested, and for siRNA transfection, 48 hours after transfection, cells were harvested. For Western blotting, the harvested cells were lysed in RIPA buffer, and centrifuged at 12,000 g for 20 minutes at 4° C., followed by collecting a supernatant. The collected supernatant was subjected to SDS-PAGE gel electrophoresis, and transferred onto a nitrocellulose membrane, followed by detecting the expression of a desired protein using suitable antibodies. As a result, it was observed that NF-κB is involved in EGF-induced CD133 expression (FIG. 1B). […] Cells were simultaneously transfected with the luciferase vector and a Renilla plasmid vector for quantification. Twenty-four hours after transfection, the cells were treated with EGF for 14 hours, lysed with lysis buffer and centrifuged to obtain a supernatant, and then luciferase activity was measured using the Luminometer 20/20 (FIG. 1D).

As for EGF: epithelial growth factor (EGF), the “microvesicle and TNT formation between cells” value in test [1] is “microvesicle and TNT formation increases between cells”. In addition, the CD133 expression regulation entry in test [2] is “activates NF-κB and regulates CD133 expression at the transcription level”.

The values above are taken from US11639530B2, “CD133 related to anticancer agent resistance in colon cancer and use thereof” (KOREA UNIVERSITY RESEARCH AND BUSINESS FOUNDATION, priority 2019, dated 2023).
